In the supplement of paper PMC11061612:

How the values were obtained:
Assay in all cases: combination Emax (second highest fraction inhibited in the dose matrix, 72 h); higher = more inhibition; extreme values may be limits of the assay
[1] = test system: 769-P (Kidney Carcinoma)
Procedure, shortened: (§1)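 Bliss excess equals the observed combination effect minus the expected value EA + EB − EA·EB, where EA and EB are the effects of each agent alone. Combination Emax is the second-highest inhibition within the matrix. Inhibition was scaled from CellTiter-Glo 2.0 luminescence, with 0 set by vehicle wells and 1 by blank wells, after 72 hours of two-drug dosing of cells plated in 1536-well plates.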

[2] = test system: A253 (Head and Neck Carcinoma)
Procedure, shortened: as §1

[3] = test system: DMS-53 (Small Cell Lung Carcinoma)
Procedure, shortened: as §1

[4] = test system: EW-7 (Ewing's Sarcoma)
Procedure, shortened: as §1

[5] = test system: GCT (Other Solid Carcinomas)
Procedure, shortened: as §1

[6] = test system: HCC1395 (Breast Carcinoma)
Procedure, shortened: as §1

[7] = test system: HT55 (Colorectal Carcinoma)
Procedure, shortened: as §1

[8] = test system: JHH-2 (Hepatocellular Carcinoma)
Procedure, shortened: as §1

[9] = test system: JHU-022 (Oral Cavity Carcinoma)
Procedure, shortened: as §1

[10] = test system: KP-N-YN (Neuroblastoma)
Procedure, shortened: as §1

[11] = test system: LS-411N (Colorectal Carcinoma)
Procedure, shortened: as §1

[12] = test system: LU-165 (Small Cell Lung Carcinoma)
Procedure, shortened: as §1

[13] = test system: MDA-MB-436 (Breast Carcinoma)
Procedure, shortened: as §1

[14] = test system: NB13 (Neuroblastoma)
Procedure, shortened: as §1

[15] = test system: NCI-H441 (Lung Adenocarcinoma)
Procedure, shortened: as §1

[16] = test system: NCI-H716 (Colorectal Carcinoma)
Procedure, shortened: as §1

[17] = test system: PEO1 (Ovarian Carcinoma)
Procedure, shortened: as §1

[18] = test system: SW620 (Colorectal Carcinoma)
Procedure, shortened: as §1

[19] = test system: UACC-812 (Breast Carcinoma)
Procedure, shortened: as §1

[20] = test system: WM1552C (Melanoma)
Procedure, shortened: as §1

Row | SMILES | combination Emax [1] | combination Emax [2] | combination Emax [3] | combination Emax [4] | combination Emax [5] | combination Emax [6] | combination Emax [7] | combination Emax [8] | combination Emax [9] | combination Emax [10] | combination Emax [11] | combination Emax [12] | combination Emax [13] | combination Emax [14] | combination Emax [15] | combination Emax [16] | combination Emax [17] | combination Emax [18] | combination Emax [19] | combination Emax [20]
1 | COc1cccc(OCCCN)c1-c1cc(Nc2cnc(C#N)cn2)n[nH]1 [Prexasertib] + CN(C)CCCOc1ccc(-c2ccc3ncc4c(c3c2)n(C2CCOCC2)c(=O)n4C)cn1 [AZD0156] (first compound max 1 µM, 7x7, partner max 1 µM) | 0.898 | 0.774 | 0.275 | 0.981 | 0.324 | 0.857 | 0.614 | 0.837 | 0.659 | 0.999 | 0.782 | 0.561 | 0.41 | 0.935 | 0.513 | 0.662 | 0.388 | 0.696 | 0.537 | 0.844
2 | COc1cccc(OCCCN)c1-c1cc(Nc2cnc(C#N)cn2)n[nH]1 [Prexasertib] + Cc1cc2ncnn2cc1Nc1ncc2c(n1)n(C1CCOCC1)c(=O)n2C [AZD7648] (first compound max 1 µM, 7x7, partner max 10 µM) | 0.819 | 0.782 | 0.293 | 0.971 | 0.36 | 0.855 | 0.65 | 0.891 | 0.634 | 0.992 | 0.753 | 0.58 | 0.431 | 0.919 | 0.505 | 0.662 | 0.415 | 0.698 | 0.546 | 0.763
3 | COc1nnc2ccc(N3CCC(c4ccc(OCCN5CCN(C)C(=O)[C@H]5C)cc4)CC3)nn12 [AZD5153] + Cc1c2c(nn1C)CSCc1cc(n(C)n1)CSc1cc(c3ccccc3c1)OCCCc1c(C(=O)O)n(C)c3c-2c(Cl)ccc13 [AZD5991] (first compound max 1 µM, 7x7, partner max 1 µM) | 0.727 | 0.816 | 0.612 | 0.759 | 0.6 | 0.817 | 0.61 | 0.343 | 0.417 | 0.449 | 0.917 | 0.65 | 0.293 | 0.907 | 0.384 | 0.817 | 0.432 | 0.512 | 0.8 | 0.888
4 | COc1nnc2ccc(N3CCC(c4ccc(OCCN5CCN(C)C(=O)[C@H]5C)cc4)CC3)nn12 [AZD5153] + C[C@@H]1COCCN1C2=NC(=NC(=C2)C3(CC3)[S@](=N)(=O)C)C4=C5C=CNC5=NC=C4 [AZD6738] (first compound max 1 µM, 7x7, partner max 10 µM) | 0.977 | 0.736 | 0.58 | 0.961 | 0.6 | 0.671 | 0.748 | 0.711 | 0.563 | 0.955 | 0.947 | 0.685 | 0.332 | 0.917 | 0.562 | 0.702 | 0.748 | 0.784 | 0.479 | 0.546
5 | COc1nnc2ccc(N3CCC(c4ccc(OCCN5CCN(C)C(=O)[C@H]5C)cc4)CC3)nn12 [AZD5153] + CCN(CCO)CCCOc1ccc2c(Nc3cc(CC(=O)Nc4cccc(F)c4)[nH]n3)ncnc2c1 [AZD2811] (first compound max 1 µM, 7x7, partner max 1 µM) | 0.711 | 0.444 | 0.593 | 0.444 | 0.568 | 0.398 | 0.619 | 0.416 | 0.452 | 0.616 | 0.739 | 0.458 | 0.287 | 0.65 | 0.381 | 0.529 | 0.435 | 0.597 | 0.298 | 0.444
6 | COc1nnc2ccc(N3CCC(c4ccc(OCCN5CCN(C)C(=O)[C@H]5C)cc4)CC3)nn12 [AZD5153] + C=CCn1c(=O)c2cnc(Nc3ccc(N4CCN(C)CC4)cc3)nc2n1-c1cccc(C(C)(C)O)n1 [AZD1775] (first compound max 1 µM, partner max 1 µM) | 0.956 | 0.356 | 0.51 | 0.872 | 0.617 | 0.524 | 0.81 | 0.553 | 0.417 | 0.924 | 0.889 | 0.602 | 0.227 | 0.813 | 0.436 | 0.524 | 0.691 | 0.685 | 0.376 | 0.439
7 | COc1cccc(OCCCN)c1-c1cc(Nc2cnc(C#N)cn2)n[nH]1 [Prexasertib] + C=CCn1c(=O)c2cnc(Nc3ccc(N4CCN(C)CC4)cc3)nc2n1-c1cccc(C(C)(C)O)n1 [AZD1775] (first compound max 1 µM, partner max 1 µM) | 0.867 | 0.93 | 0.473 | 0.962 | 0.644 | 0.903 | 0.67 | 0.9 | 0.624 | 0.994 | 0.759 | 0.604 | 0.599 | 0.935 | 0.539 | 0.664 | 0.478 | 0.853 | 0.662 | 0.885
8 | CN(C)CCCOc1ccc(-c2ccc3ncc4c(c3c2)n(C2CCOCC2)c(=O)n4C)cn1 [AZD0156] + C[C@@H]1COCCN1C2=NC(=NC(=C2)C3(CC3)[S@](=N)(=O)C)C4=C5C=CNC5=NC=C4 [AZD6738] (first compound max 1 µM, 7x7, partner max 10 µM) | 0.84 | 0.794 | 0.134 | 0.935 | 0.231 | 0.8 | 0.514 | 0.597 | 0.525 | 0.973 | 0.808 | 0.233 | 0.23 | 0.906 | 0.435 | 0.667 | 0.533 | 0.566 | 0.295 | 0.783
9 | COc1nnc2ccc(N3CCC(c4ccc(OCCN5CCN(C)C(=O)[C@H]5C)cc4)CC3)nn12 [AZD5153] + Cn1cnc2c(F)c(Nc3ccc(Br)cc3Cl)c(C(=O)NOCCO)cc21 [Selumetinib] (first compound max 1 µM, 7x7, partner max 10 µM) | 0.659 | 0.456 | 0.426 | 0.357 | 0.59 | 0.305 | 0.857 | 0.427 | 0.508 | 0.369 | 0.997 | 0.357 | 0.217 | 0.565 | 0.453 | 0.879 | 0.483 | 0.76 | 0.331 | 0.514
10 | CC1(C)CCC(CN2CCN(c3ccc(C(=O)NS(=O)(=O)c4ccc(NCC5CCOCC5)c([N+](=O)[O-])c4)c(Oc4cnc5[nH]ccc5c4)c3)CC2)=C(c2ccc(Cl)cc2)C1 [Venetoclax] + Cn1cnc2c(F)c(Nc3ccc(Br)cc3Cl)c(C(=O)NOCCO)cc21 [Selumetinib] (first compound max 1 µM, 7x7, partner max 3 µM) | 0.292 | 0.185 | 0.367 | 0.887 | 0.289 | 0.693 | 0.728 | 0.388 | 0.42 | 0.632 | 0.526 | 0.142 | 0.111 | 0.183 | 0.255 | 0.366 | 0.19 | 0.575 | 0.0864 | 0.488
11 | COc1cccc(OCCCN)c1-c1cc(Nc2cnc(C#N)cn2)n[nH]1 [Prexasertib] + C[C@@H]1COCCN1C2=NC(=NC(=C2)C3(CC3)[S@](=N)(=O)C)C4=C5C=CNC5=NC=C4 [AZD6738] (first compound max 1 µM, 7x7, partner max 10 µM) | 0.837 | 0.846 | 0.272 | 0.971 | 0.315 | 0.86 | 0.65 | 0.854 | 0.627 | 1 | 0.795 | 0.565 | 0.473 | 0.943 | 0.544 | 0.616 | 0.489 | 0.744 | 0.542 | 0.743
12 | CC1(C)CCC(CN2CCN(c3ccc(C(=O)NS(=O)(=O)c4ccc(NCC5CCOCC5)c([N+](=O)[O-])c4)c(Oc4cnc5[nH]ccc5c4)c3)CC2)=C(c2ccc(Cl)cc2)C1 [Venetoclax] + Cc1cc2ncnn2cc1Nc1ncc2c(n1)n(C1CCOCC1)c(=O)n2C [AZD7648] (first compound max 1 µM, 7x7, partner max 10 µM) | 0.171 | 0.212 | 0.428 | 0.95 | 0.283 | 0.654 | 0.205 | 0.506 | 0.221 | 0.542 | 0.107 | 0.196 | 0.22 | 0.368 | 0.264 | 0.203 | 0.163 | 0.175 | 0.22 | 0.444
13 | Cc1c2c(nn1C)CSCc1cc(n(C)n1)CSc1cc(c3ccccc3c1)OCCCc1c(C(=O)O)n(C)c3c-2c(Cl)ccc13 [AZD5991] + C1CN(CCC1(C(=O)N[C@@H](CCO)C2=CC=C(C=C2)Cl)N)C3=NC=NC4=C3C=CN4 [Capivasertib] (first compound max 1 µM, 7x7, partner max 3 µM) | 0.146 | 0.92 | 0.442 | 0.725 | 0.438 | 0.911 | 0.269 | 0.604 | 0.356 | 0.256 | 0.362 | 0.261 | 0.201 | 0.349 | 0.237 | 0.401 | 0.207 | 0.16 | 0.427 | 0.929
